Results as given in article PMC5708805, “Novel molecular imaging ligands targeting matrix metalloproteinases 2 and 9 for imaging of unstable atherosclerotic plaques” (PLoS ONE, 2017).

How the values were obtained:
MMP2 = target: T1, MMP2 (Homo sapiens, UniProt P08253); assay: In vitro fluorometric MMP inhibition assay (SensoLyte 520 MMP-2); format: biochemical; details: for Selectivity MMP1/MMP2: ratio of IC50 values, MMP1 IC50 divided by MMP2 IC50; for IC50: mean ± SD of three independent experiments in duplicate
T1 construct: purchased AnaSpec, San Jose, USA
T1 sequence (P08253 110-660): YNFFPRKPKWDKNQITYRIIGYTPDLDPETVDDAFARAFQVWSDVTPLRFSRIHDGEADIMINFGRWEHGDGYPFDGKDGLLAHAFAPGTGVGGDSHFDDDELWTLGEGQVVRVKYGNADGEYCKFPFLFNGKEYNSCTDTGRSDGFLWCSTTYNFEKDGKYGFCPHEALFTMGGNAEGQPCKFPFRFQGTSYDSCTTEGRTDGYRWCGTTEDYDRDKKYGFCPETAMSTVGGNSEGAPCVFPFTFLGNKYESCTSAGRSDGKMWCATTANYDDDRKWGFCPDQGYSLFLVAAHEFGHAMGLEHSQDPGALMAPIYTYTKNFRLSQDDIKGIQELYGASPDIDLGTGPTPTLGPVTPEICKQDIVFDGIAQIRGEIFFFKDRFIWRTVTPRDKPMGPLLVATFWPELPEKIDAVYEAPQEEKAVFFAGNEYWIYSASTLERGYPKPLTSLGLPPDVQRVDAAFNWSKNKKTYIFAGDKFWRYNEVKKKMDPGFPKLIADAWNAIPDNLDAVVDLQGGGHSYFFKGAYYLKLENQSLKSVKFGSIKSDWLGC
Description: (§1) The inhibitory potency and selective binding of MMP-ligands was investigated by examining their capacity to block MMP1, MMP2 and MMP9 activity, using in vitro fluorometric assays (SensoLyte^TM 520 MMP-1, SensoLyte^TM 520 MMP-2, SensoLyte^TM 520 MMP-9; AnaSpec, San Jose, USA). Assay buffer was warmed to 37°C and used to dilute the reference inhibitor N-isobutyl-N-(4-methoxyphenylsulfonyl)glycyl hydoxamic acid (NNGH 1:100), calibration standard (1:50), substrate and enzyme (1:60). Components were loaded into a 96-well plate. MMP ligands 10a-d were also aliquoted to the respective 96-well plate at varying concentrations (10pM, 100pM, 1nM, 10nM, 100nM, 1μM, 10 μM and 100 μM), followed by incubation at 37°C for 30 minutes. Reactions were initiated by addition of the substrate to the respective wells, after which fluorescence generated was measured using a microplate reader (Synergy HT Multi-detection Microplate Reader, BioTek, […]) continuously for 30 minutes at 60 second intervals. Data analysis was conducted using Sigma Plot and Microsoft Excel.

MMP9 = target: T2, MMP9 (Homo sapiens, UniProt P14780); assay: In vitro fluorometric MMP inhibition assay (SensoLyte 520 MMP-9); format: biochemical; details: for Selectivity MMP1/MMP9: ratio of IC50 values, MMP1 IC50 divided by MMP9 IC50; for IC50: mean ± SD of three independent experiments in duplicate
T2 construct: purchased AnaSpec, San Jose, USA
T2 sequence (P14780 94-707, species assumed): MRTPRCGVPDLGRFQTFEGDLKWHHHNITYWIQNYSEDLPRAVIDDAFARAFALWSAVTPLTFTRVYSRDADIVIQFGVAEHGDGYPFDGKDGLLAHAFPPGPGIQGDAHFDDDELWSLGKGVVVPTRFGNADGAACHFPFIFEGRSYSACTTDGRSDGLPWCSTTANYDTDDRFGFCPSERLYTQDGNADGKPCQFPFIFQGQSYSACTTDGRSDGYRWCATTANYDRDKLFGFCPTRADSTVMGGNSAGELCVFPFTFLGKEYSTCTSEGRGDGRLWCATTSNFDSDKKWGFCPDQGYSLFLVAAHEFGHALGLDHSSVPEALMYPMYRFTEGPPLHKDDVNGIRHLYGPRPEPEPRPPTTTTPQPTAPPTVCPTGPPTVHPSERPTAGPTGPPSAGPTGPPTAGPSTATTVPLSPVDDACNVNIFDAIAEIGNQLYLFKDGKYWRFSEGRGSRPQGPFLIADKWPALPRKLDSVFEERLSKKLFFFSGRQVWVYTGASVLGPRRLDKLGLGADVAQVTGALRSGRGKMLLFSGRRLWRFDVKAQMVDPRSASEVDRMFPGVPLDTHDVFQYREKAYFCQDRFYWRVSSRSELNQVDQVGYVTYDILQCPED
Description: as §1

MMP1 = target: T3, MMP1 (Homo sapiens, UniProt P03956); assay: In vitro fluorometric MMP inhibition assay (SensoLyte 520 MMP-1); format: biochemical; details: mean ± SD of three independent experiments in duplicate
T3 construct: purchased AnaSpec, San Jose, USA
T3 sequence (P03956 100-469): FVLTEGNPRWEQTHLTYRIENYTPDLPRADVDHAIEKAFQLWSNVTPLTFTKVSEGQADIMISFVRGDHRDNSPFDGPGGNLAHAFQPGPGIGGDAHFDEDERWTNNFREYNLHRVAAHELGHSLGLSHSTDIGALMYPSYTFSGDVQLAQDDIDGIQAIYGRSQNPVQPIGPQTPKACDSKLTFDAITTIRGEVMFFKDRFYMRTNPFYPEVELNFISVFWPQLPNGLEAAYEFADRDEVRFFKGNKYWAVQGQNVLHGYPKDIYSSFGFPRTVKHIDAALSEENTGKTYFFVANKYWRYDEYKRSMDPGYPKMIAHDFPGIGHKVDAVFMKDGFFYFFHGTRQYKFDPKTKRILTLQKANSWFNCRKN
Description: as §1

[1] = tested on: atherosclerotic lesions containing MMP2 and MMP9; assay: In vivo binding to atherosclerotic plaques (ex vivo storage phosphor imaging of aortic arch, MMP2/9 immunohistochemistry); design: species or system ApoE-/- mice; details: 40 MBq i.v.
Description: To investigate selective binding of [^123I]10c to MMP2/9 found in atherosclerotic lesions, we examined the distribution of the [^123I]10c in 8–10 week old female ApoE-/- mice (n = 5, Charles River) that were fed a high fat Western diet (15% fat, 0.25% cholesterol; Arie Blok Diervoeding, Netherlands) for 4 weeks. These animals subsequently developed atherosclerotic plaques. 40 MBq of [^123I]10c were administered by intravenous injection in the tail vein and allowed to circulate for […]. Animals were euthanized by bleeding via PBS infusion. The aortic arch was excised and 10 μm serial sections were made. Aortic arch sections were placed on a phosphor imaging plate (Fuji) and the amount of radioactivity was measured using a storage phosphor imaging apparatus (Typhoon Trio; GE Healthcare Life Sciences). Sections were then stained with hematoxylin/eosin staining, or used for MMP2 and MMP9 detection. Prior to incubation with monoclonal goat-anti-mouse MMP2 (R&D Systems) and rabbit-anti-mouse MMP9 (Abcam), the sections were heated to improve antigen retrieval. Rabbit-anti-goat secondary antibodies (DAKO) were utilized on the MMP2 sections. Thereafter, all sections were probed with the PowerVision anti-rabbit polymer, conjugated to horseradish peroxidase (Immunologic), to reveal positive primary antibody binding by means of chromogen conversion of 3,3’-diaminobenzidine (DAB), followed by nuclear counterstaining with hematoxylin. Histological sections were imaged with a bright-field microscope. […]
To validate the efficacy of [^123I]10c as an appropriate tracer for detection of atherosclerotic plaques, we examined the in vivo uptake of this ligand in ApoE-/- mice that were fed a high-fat diet. […] 40 MBq of [^123I]10c was administered intravenously and allowed to circulate for 3 hours, after which the animals were euthanized and the aortic arch was excised for measuring radioactivity by storage phosphor imaging.
Fig 6 Binding of [^123I]10c to atherosclerotic lesions containing MMP2 and MMP9. […] The region with highest apparent radioactivity has been outlined. […]

[2] = In vivo biodistribution after intravenous injection in healthy mice; details: healthy C57BL/6 mice
Description: All experiments were approved by the institutional committee for animal experiments at the Academic Medical Center. C57BL/6 female mice (14–16 week) were purchased from Harlan and housed in the animal care facility at the Academic Medical Center. Animals were anesthetized using 126 mg ketamine, 100 μg dexdomitor, 500 μg atropine, 7.5 mL NaCl 0.9% of which 0.015 mL/g body weight was administered by intraperitoneal injection. In order to investigate the in vivo biodistribution of MMP ligand [^123I]10c, 4 MBq was administered intravenously in the tail vein and allowed to circulate for either 5, 15, 30, 60 minutes or 2, 3, 4, 6 and 24 hours (n = 3–4 animals for each time point). At the end of each circulation time, animals were sacrificed by bleeding through phosphate buffered saline solution (PBS) perfusion. After the animals were sacrificed, whole blood was collected by cardiac puncture, and selected organs were excised (heart, lungs, liver and kidneys). The organs were weighed and radioactivity was measured using a scintillation counter (TRT-CARB 2000CA, Perkin Elmer 1987). The measured radioactivity was expressed as the percentage of the injected dose per gram of tissue per gram of body weight (% ID/g/g).
The biodistribution of [^123I]10c was investigated following intravenous infusion of 4 MBq in healthy C57BL/6 mice. Following the bolus injection, the compound was allowed to circulate for 5, 15, 30, 60 minutes, 2, 3, 4, 6 and 24 hours. […] In the blood, stabilization of the compound was reached after at least 1 hour of circulation.
Fig 5 Biodistribution of [^123I]10c following intravenous infusion in healthy mice (n = 3–4 /group). Injected dose (ID) of radioactivity was measured in fat (A), muscle (B), liver (C), kidney (D), spleen (E), blood (F), heart (G) and lung (H) at varying time-points after injection. Values shown are mean ± SEM.

Structure (SMILES) | Selectivity MMP1/MMP2 (MMP2) | Selectivity MMP1/MMP9 (MMP9) | IC50 (MMP1) | IC50 (MMP2) | IC50 (MMP9) | circulation time until stabilization of the compound in blood ([2]; 4 MBq i.v. bolus) | tissues with highest radioactivity (biodistribution) ([2]; 4 MBq i.v., 5 min to 24 h) | accumulation in fat (biodistribution) ([2]; 4 MBq i.v., 5 min to 24 h, relative to other tissues) | tracer uptake in diseased regions of the vessel wall ([1]; ApoE-/- mice on high-fat diet, storage phosphor imaging) | uptake in atherosclerotic lesions of the aortic arch ([1]; ApoE-/- mice on high-fat diet, storage phosphor imaging of excised aortic arch) | relation of tracer uptake to MMP2 and MMP9 immunohistochemical staining in lesions ([1]; ApoE-/- mice, consecutive aortic arch sections)
O=C(O)CN(CC(=O)NO)S(=O)(=O)c1ccc(Oc2ccc(F)cc2)cc1 [Compound 10b] | 3.60 x 10^4 | 1.74 x 10^4 | – | – | – | – | – | – | – | – | –
O=C(O)CN(CC(=O)NO)S(=O)(=O)c1ccc(Oc2ccc(Br)cc2)cc1 [Compound 10d, ([4-(4-Bromo-phenoxy)-benzenesulphonyl]-hydroxycarbamoylmethyl-amino) acetic acid] | 173 | 820 | 1320 ± 790 nM | 7.64 ± 1.43 nM | 1.61 ± 1.41 nM | – | – | – | – | – | –
O=C(O)CN(CC(=O)NO)S(=O)(=O)c1ccc(Oc2ccccc2)cc1 [Compound 10a, ([4-Phenoxy-benzenesulphonyl]-hydroxycarbamoylmethyl-amino) acetic acid] | 884 | 387 | – | – | – | – | – | – | – | – | –
O=C(O)CN(CC(=O)NO)S(=O)(=O)c1ccc(I)cc1 [Compound 4c, 2-(4-Iodo-N-(2-hydroxyamino)-2-oxoethyl) phenylsufonamido acetic acid] | 2.19 | 5.36 | 59 ± 0.17 nM | 27 ± 1 nM | 11 ± 1.14 nM | – | – | – | – | – | –
O=C(O)CN(CC(=O)NO)S(=O)(=O)c1ccc(Cl)cc1 [Compound 4e, 2-(4-chloro-N-(2-hydroxyamino)-2-oxoethyl)phenylsufonamido acetic acid] | 1.49 | 3.39 | 61 ± 0.11 nM | 41 ± 0.19 nM | 18 ± 0.16 nM | – | – | – | – | – | –
O=C(O)CN(CC(=O)NO)S(=O)(=O)c1ccc(Br)cc1 [Compound 4d, 2-(4-bromo-N-(2-hydroxyamino)-2-oxoethyl) phenylsufonamido acetic acid] | 3.32 | 2.74 | 63 ± 0.13 nM | 19 ± 0.19 nM | 23 ± 0.21 nM | – | – | – | – | – | –
O=C(O)CN(CC(=O)NO)S(=O)(=O)c1ccc(Oc2ccc(I)cc2)cc1 [Compound 10c, ([4-(4-Iodo-phenoxy)-benzenesulphonyl]-hydroxycarbamoylmethyl-amino) acetic acid] | 1.05 x 10^3 | 467 | 910 ± 560 nM | 0.87 ± 0.4 nM | 1.95 ± 1.1 nM | – | – | – | – | – | –

The next lines start with results.

Selectivity MMP1/MMP2 (MMP2) | Selectivity MMP1/MMP9 (MMP9) | IC50 (MMP1) | IC50 (MMP2) | IC50 (MMP9) | circulation time until stabilization of the compound in blood ([2]; 4 MBq i.v. bolus) | tissues with highest radioactivity (biodistribution) ([2]; 4 MBq i.v., 5 min to 24 h) | accumulation in fat (biodistribution) ([2]; 4 MBq i.v., 5 min to 24 h, relative to other tissues) | Structure (SMILES) | tracer uptake in diseased regions of the vessel wall ([1]; ApoE-/- mice on high-fat diet, storage phosphor imaging) | uptake in atherosclerotic lesions of the aortic arch ([1]; ApoE-/- mice on high-fat diet, storage phosphor imaging of excised aortic arch) | relation of tracer uptake to MMP2 and MMP9 immunohistochemical staining in lesions ([1]; ApoE-/- mice, consecutive aortic arch sections)
6.25 | 3.57 | 75 ± 0.15 nM | 12 ± 0.17 nM | 21 ± 0.19 nM | – | – | – | O=C(O)CN(CC(=O)NO)S(=O)(=O)c1ccc(F)cc1 [Compound 4b, 2-(4-fluoro-N-(2-hydroxyamino)-2oxoethyl)phenylsufonamido acetic acid] | – | – | –
1.31 | 3.64 | 51 ± 0.1 nM | 39 ± 0.16 nM | 14 ± 1.05 nM | – | – | – | O=C(O)CN(CC(=O)NO)S(=O)(=O)c1ccccc1 [Compound 4a, 2-(N-(2(hydroxyamino)-2-oxoethyl)phenylsulfonamido) acetic acid] | – | – | –
– | – | – | – | – | at least 1 hour | highest in the liver and blood | lowest | O=C(O)CN(CC(=O)NO)S(=O)(=O)c1ccc(Oc2ccc([123I])cc2)cc1 [[^123I]10c, ([4-(4-[^123I]Iodophenoxy)benzenesulphonyl]hydroxycarbamoylmethylamino) acetic acid] | relatively high | detectable | co-localizing
